These are literature values, as cited in patent publication US20090221469A1, “USE OF SOY KEFIR POWDER FOR REDUCING PAIN, BLOOD PRESSURE AND INFLAMMATION” (KCLM RESEARCH IN NUTRITION INC., priority 2006, published 2009).

The subject of data set [1] is patients with neuralgia or moderate to severe nonmalignant pain. The note with it: treatment of neuralgia (Stacey et al., 2004).

Regarding isoflavones, the half-lives is 4 to 8 h.
On to `NCC1(CC(=O)O)CCCCC1` [gabapentin], for which the “SF-36 improvement of mean scores for bodily pain” value in data set [1] is listed as 9.2 points.
